The values that follow are results of earlier work, collected in patent US11058116B1, “Composition for stimulating plant growth and resistance to stress factors” (AGRATEK PTE. LTD., priority 2018, dated 2021).

The structures appear in SMILES notation.

One series has as its system seeds. The following applies: pre-treatment of seeds with a solution.
For a further series, the system named is mold. The following applies: pre-treatment of seeds with a solution.

Turning to `O=C([O-])CCC(=O)[O-].[Mg+2]` [succinate of magnesium, magnesium succinate (Mg2C4H4O4)], the “germination (increased to)” value in the series with seeds is on record as 99%. Moreover, the “reduces the seeds infection with mold” value in the series on mold is 86%.
